# In paper PMC9884089 (Journal of Medicinal Chemistry, 2023):
# pIC50: −log10 of the molar value. Read-outs that look alike come from different tables or passages of the source.
# How the values were obtained:
# [1] = target: T1, TNKS2 (Homo sapiens, UniProt Q9H2K2); assay: biochemical
# T1 sequence (Q9H2K2 1-1166): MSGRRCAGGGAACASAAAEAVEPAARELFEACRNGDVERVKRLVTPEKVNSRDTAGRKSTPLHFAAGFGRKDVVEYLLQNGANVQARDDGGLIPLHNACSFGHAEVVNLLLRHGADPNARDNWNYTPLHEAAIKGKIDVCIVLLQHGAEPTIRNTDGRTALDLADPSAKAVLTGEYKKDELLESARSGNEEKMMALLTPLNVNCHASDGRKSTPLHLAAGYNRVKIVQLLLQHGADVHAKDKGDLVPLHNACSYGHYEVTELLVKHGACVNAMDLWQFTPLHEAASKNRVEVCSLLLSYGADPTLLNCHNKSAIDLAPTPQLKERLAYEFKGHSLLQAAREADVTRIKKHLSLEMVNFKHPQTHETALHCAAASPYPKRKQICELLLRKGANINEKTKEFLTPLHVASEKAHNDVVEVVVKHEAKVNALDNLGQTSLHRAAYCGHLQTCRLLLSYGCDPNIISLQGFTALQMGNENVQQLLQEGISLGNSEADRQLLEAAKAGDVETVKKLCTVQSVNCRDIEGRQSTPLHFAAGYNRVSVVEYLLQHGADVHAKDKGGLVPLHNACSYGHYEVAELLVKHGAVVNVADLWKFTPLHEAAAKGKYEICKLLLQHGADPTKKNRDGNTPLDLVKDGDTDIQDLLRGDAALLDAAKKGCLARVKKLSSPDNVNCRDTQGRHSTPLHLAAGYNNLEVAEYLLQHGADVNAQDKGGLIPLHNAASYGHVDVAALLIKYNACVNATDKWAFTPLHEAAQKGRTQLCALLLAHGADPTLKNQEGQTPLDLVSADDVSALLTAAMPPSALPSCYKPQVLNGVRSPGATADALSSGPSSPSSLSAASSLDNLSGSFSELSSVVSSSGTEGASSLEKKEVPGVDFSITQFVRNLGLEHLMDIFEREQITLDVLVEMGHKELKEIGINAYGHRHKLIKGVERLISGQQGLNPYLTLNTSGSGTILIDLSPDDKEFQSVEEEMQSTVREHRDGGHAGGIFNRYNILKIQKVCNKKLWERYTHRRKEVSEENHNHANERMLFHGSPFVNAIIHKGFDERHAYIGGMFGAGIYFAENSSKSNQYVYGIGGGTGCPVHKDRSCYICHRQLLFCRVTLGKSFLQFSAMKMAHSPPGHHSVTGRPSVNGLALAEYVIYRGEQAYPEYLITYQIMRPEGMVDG
# Protocol: The proteins used in Tables 1–3 were produced as described earlier. Dockerin constructs to allow enhanced activity assays for mono-ARTs (Table 4) were produced in Escherichia coli with an N-terminal maltose binding protein (MBP) and a C-terminal dockerin domain from Hungateiclostridium thermocellum Cel48s as described recently.[47]
# Inhibition experiments were performed using a homogenous assay measuring NAD+ consumption.[80]−[82] Reactions were carried out in quadruplicate, and IC50 curves were fitted using sigmoidal dose response curve (four variables) in GraphPad Prism version 8.02. […] Assay conditions for PARP2, TNKS2, PARP10, and PARP15 (Tables 1–3) were recently reported.[44] The conditions for the proximity-enhanced mono-ART assays (Table 4) were also reported recently.[47] PARP6 (400 nM) inhibition was measured using the standard buffer (50 mM sodium phosphate pH 7.0) for the enhanced activity assay using 500 nM NAD^+ and 18 h incubation in r.t..
# [2] = target: T2, PARP15 (Homo sapiens, UniProt Q460N3); assay: biochemical; type: biochemical; conditions: standard assay (Tables 1-3); * value limited by the protein concentration used; > less than 50% inhibition, ≫ no inhibition at the concentration; read-out: PARP15 IC50
# T2 construct: made in house
# T2 sequence (Q460N3 1-678): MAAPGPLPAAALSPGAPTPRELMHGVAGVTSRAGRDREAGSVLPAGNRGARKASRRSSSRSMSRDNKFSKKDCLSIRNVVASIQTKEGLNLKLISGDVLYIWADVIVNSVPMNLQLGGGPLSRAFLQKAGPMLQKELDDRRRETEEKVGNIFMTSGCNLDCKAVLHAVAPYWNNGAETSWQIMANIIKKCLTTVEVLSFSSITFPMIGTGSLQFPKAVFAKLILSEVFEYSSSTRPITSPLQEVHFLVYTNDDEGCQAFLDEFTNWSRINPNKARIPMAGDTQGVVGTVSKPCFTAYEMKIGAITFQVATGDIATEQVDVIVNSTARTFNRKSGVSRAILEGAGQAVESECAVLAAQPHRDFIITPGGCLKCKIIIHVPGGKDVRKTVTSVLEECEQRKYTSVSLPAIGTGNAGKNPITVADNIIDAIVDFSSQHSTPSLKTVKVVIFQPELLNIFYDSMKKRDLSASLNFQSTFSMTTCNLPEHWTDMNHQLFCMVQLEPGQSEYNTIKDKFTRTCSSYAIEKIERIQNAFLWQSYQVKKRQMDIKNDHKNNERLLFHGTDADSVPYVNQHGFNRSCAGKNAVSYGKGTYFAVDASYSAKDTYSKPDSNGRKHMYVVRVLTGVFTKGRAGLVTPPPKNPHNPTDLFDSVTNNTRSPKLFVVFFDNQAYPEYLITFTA
# [3] = target: T3, PARP2 (Homo sapiens, UniProt Q9UGN5); assay: biochemical; type: biochemical
# T3 construct: made in house
# T3 sequence (Q9UGN5 whole entry): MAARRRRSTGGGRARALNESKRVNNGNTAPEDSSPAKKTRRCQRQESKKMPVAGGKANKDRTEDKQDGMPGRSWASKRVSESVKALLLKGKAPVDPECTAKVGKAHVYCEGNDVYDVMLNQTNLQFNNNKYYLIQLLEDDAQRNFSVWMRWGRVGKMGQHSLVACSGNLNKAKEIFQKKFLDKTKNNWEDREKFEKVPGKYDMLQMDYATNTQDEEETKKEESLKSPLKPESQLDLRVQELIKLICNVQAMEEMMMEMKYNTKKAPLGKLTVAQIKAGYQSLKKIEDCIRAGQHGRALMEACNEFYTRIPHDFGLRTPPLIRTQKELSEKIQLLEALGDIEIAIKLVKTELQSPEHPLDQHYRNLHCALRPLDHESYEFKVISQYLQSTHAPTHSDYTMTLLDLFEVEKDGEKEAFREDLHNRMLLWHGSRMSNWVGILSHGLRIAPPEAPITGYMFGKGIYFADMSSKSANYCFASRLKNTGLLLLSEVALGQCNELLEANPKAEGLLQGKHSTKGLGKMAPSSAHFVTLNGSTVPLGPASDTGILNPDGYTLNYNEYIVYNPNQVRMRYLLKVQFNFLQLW
# [4] = PAMPA, blood brain barrier (BBB) permeability; type: in vitro ADME; conditions: brain polar lipid, pH 7.4, 5 h
# Protocol: Each “donor solution” was prepared from a solution of the appropriate compound (DMSO, 1 mM) diluted with phosphate buffer (pH 7.4, 0.025 M) up to a final concentration of 500 μM. […] Donor solution (150 μL) was added to each well of the filter plate and to each well of the acceptor plate was added 300 μL of solution (50% DMSO in phosphate buffer). The sandwich plate was assembled and incubated for 5 h at r.t. After the incubation time, the plates were separated, and the samples were taken from both the donor and acceptor wells, and the amount of compound was measured by UV/LC–MS. All compounds were tested in three independent experiments. […] Drug concentration is estimated by using the peak area integration. Membrane retentions (%) were calculated according to the following equation [drawing 2] where r is the ratio between drug concentration in the acceptor and equilibrium concentration and D, A, and Eq represent drug concentration in the donor, acceptor, and equilibrium solution, respectively.
# [5] = read-out: TNKS2 IC50, > = less than 50% inhibition at highest concentration
# [6] = > = less than 50% inhibition at highest concentration, ≫ = no inhibition, read-out: PARP2 IC50
SMILES,"pIC50 [1, 5]","pIC50 [3, 6]",other results
"Cc1ccc2sc3nncn3c2c1 [Compound 3, 6-Methyl[1,2,4]triazolo[3,4-b][1,3]benzothiazole]",6.02,5.82,TNKS2 pIC50 ± SEM ([1]; n = 3): 6.02 ± 0.13
"Cc1cccc2c1sc1nncn12 [Compound 4, 8-Methyl[1,2,4]triazolo[3,4-b][1,3]benzothiazole]",5.42,5.08,
Cc1ccc2c(c1)sc1nncn12 [Compound 1],5.28,5.40,
"Cc1ccc2c(c1)sc1nnc(/N=C\c3ccc(Cl)cc3)n12 [Compound 24, N-[(1Z)-(4-Chlorophenyl)methylene]-7-methyl[1,2,4]triazolo[3,4-b][1,3]benzothiazol-3-amine]",,,pIC50 [1]: < 4.00; pIC50 ([3]; read-out: PARP2 IC50): 5.54
"CCc1ccc2c(c1)sc1nncn12 [Compound 5, 7-Ethyl[1,2,4]triazolo[3,4-b][1,3]benzothiazole]",5.28,5.41,
Clc1ccc2c(c1)sc1nncn12 [Compound 7],5.00,5.62,
Cc1cc(C)c2c(c1)sc1nncn12 [Compound 8],5.92,5.89,
"Cc1ccc(F)c2c1sc1nncn12 [Compound 9, 5-Fluoro-8-methyl[1,2,4]triazolo[3,4-b][1,3]benzothiazole]",5.27,,
"COc1cccc2sc3nncn3c12 [Compound 13, 5-Methoxy[1,2,4]triazolo[3,4-b][1,3]benzothiazole]",6.00,,
COc1ccc2c(c1)sc1nncn12 [Compound 11],5.26,5.06,
"COc1ccc2sc3nncn3c2c1 [Compound 10, 6-Methoxy[1,2,4]triazolo[3,4-b][1,3]benzothiazole]",6.00,5.33,
"O=C(c1cc(Cc2n[nH]c(=O)c3ccccc23)ccc1F)N1CCN(C(=O)C2CC2)CC1 [olaparib, reference compound]",,,"Papp at 5 h, 500 μM [4]: 0.016 ×10⁻⁶ cm/s"

# The next lines start with results.
"pIC50 [1, 5]","pIC50 [3, 6]",SMILES,other results
< 4.00,< 4.00,Cc1ccc2c(c1)sc1nnc(O)n12 [Compound 19],pIC50 [2]: < 5.00
< 4.00,4.01,"COc1ccc(OC)c2c1sc1nnc(NC(C)=O)n12 [Compound 31, N-(5,8-Dimethoxy[1,2,4]triazolo[3,4-b][1,3]benzothiazol-3-yl)acetamide]",
< 4.00,4.15,"Cc1ccc2c(c1)sc1nnc(NCc3ccc(Cl)cc3)n12 [Compound 25, N-(4-Chlorobenzyl)-7-methyl[1,2,4]triazolo[3,4-b][1,3]benzothiazol-3-amine]",
5.12,4.70,"COc1cc(OC)c2sc3nncn3c2c1 [Compound 15, 6,8-Dimethoxy[1,2,4]triazolo[3,4-b][1,3]benzothiazole]",
< 4.00,,"COc1ccc(OC)c2c1sc1nnc(NC(=O)C(C)(C)C)n12 [Compound 30, N-(5,8-Dimethoxy[1,2,4]triazolo[3,4-b][1,3]benzothiazol-3-yl)-2,2-dimethylpropanamide]",pIC50 [3]: 4.28
4.18,4.72,"COc1ccc(OC)c2c1sc1nnc(S)n12 [Compound 26, 5,8-Dimethoxy[1,2,4]triazolo[3,4-b][1,3]benzothiazole-3(2H)-thione]",
4.77,4.54,"Oc1cccc2c1sc1nncn12 [Compound 17, [1,2,4]Triazolo[3,4-b][1,3]benzothiazol-8-ol]",
5.40,5.04,"COc1ccc(OC)c2c1sc1nncn12 [Compound 14, 5,8-Dimethoxy[1,2,4]triazolo[3,4-b][1,3]benzothiazole]",
< 4.00,4.92,"CSc1nnc2sc3cc(C)ccc3n12 [Compound 22, 7-Methyl-3-(methylthio)[1,2,4]triazolo[3,4-b][1,3]benzothiazole]",
< 4.00,< 4.00,"Cc1ccc2c(c1)sc1nnc(SCc3ccc(Cl)cc3)n12 [Compound 23, 3-[(4-Chlorobenzyl)thio]-7-methyl[1,2,4]triazolo[3,4-b][1,3]benzothiazole]",
4.62,< 5.00,"COc1cccc2c1sc1nncn12 [Compound 12, 8-Methoxy[1,2,4]triazolo[3,4-b][1,3]benzothiazole]",
